From BindingDB's records for doi:10.1016/0960-894X(95)00398-D (1995)

Biological target: Beta-2 adrenergic receptor (Rattus norvegicus) (UniProt P10608)
Assay: Compound was evaluated for its binding affinity to beta-2 receptor in rat brain using [3H]- DHA radioligand assay

Chain of Beta-2 adrenergic receptor (Rattus norvegicus) (P10608 whole entry, looked up): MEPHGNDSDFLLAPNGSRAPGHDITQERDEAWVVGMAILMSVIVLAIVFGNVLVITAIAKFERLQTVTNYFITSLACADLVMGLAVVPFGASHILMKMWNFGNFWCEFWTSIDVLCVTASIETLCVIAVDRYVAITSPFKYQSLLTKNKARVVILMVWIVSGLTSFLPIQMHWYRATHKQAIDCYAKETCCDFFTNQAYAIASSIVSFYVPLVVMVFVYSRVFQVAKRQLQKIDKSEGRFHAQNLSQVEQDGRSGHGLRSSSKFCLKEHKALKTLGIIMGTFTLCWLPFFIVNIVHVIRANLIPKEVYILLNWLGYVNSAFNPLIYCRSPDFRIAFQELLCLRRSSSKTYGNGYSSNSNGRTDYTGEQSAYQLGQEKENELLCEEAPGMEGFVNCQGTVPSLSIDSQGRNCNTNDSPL

Ki: 1.74 µM
SMILES: COc1cccc2c1CCC[C@H]2CN(C)CCc1ccc2ccoc2c1 [A-80426]
